From article PMC7550323 (Clinical Pharmacokinetics, 2020)

Assays:
CYP3A4 [1] = molecular target: T1, CYP3A4 (Homo sapiens, UniProt P08684); experiment: Effect of gilteritinib on the pharmacokinetics of midazolam; conditions: for AUC24, GLSM ratio (midazolam + gilteritinib/midazolam alone) / Cmax, GLSM ratio (midazolam + gilteritinib/midazolam alone): 100 indicates no change; for increase in AUC24 on coadministration of gilteritinib with midazolam / increase in Cmax on coadministration of gilteritinib with midazolam: relative to midazolam alone
T1 sequence (P08684 whole entry): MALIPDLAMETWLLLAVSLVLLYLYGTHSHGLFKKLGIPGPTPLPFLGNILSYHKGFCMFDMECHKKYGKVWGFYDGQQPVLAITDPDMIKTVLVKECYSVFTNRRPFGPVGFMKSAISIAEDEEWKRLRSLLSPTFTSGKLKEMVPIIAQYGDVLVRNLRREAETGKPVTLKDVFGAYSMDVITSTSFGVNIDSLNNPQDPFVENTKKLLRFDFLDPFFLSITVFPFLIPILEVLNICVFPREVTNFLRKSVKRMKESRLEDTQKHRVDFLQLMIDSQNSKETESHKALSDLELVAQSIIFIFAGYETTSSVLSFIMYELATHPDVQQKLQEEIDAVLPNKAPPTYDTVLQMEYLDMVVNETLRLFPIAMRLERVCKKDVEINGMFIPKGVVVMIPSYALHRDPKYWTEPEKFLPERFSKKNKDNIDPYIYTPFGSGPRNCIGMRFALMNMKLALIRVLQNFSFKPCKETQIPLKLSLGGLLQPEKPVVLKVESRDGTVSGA

CYP3A4 [2] = molecular target: T1, CYP3A4; experiment: clinical; conditions: plasma, po, 2 mg
[3] = human, in vivo; cited from earlier work

Compound	AUC24, GLSM ratio (midazolam + gilteritinib/midazolam alone) (CYP3A4 [1]; N = 8)	Cmax, GLSM ratio (midazolam + gilteritinib/midazolam alone) (CYP3A4 [1]; N = 9)	AUC24, MDZ + gilteritinib (GLSM) (CYP3A4 [1]; midazolam 2 mg oral on Cycle 1 Day 15 with gilteritinib 300 mg QD, N = 8)	Cmax, MDZ + gilteritinib (GLSM) (CYP3A4 [1]; midazolam 2 mg oral on Cycle 1 Day 15 with gilteritinib 300 mg QD, N = 9)	AUC24, MDZ alone (GLSM) (CYP3A4 [1]; midazolam 2 mg oral on Day-1, N = 8)	Cmax, MDZ alone (GLSM) (CYP3A4 [1]; midazolam 2 mg oral on Day-1, N = 9)	increase in AUC24 on coadministration of gilteritinib with midazolam (CYP3A4 [1])	increase in Cmax on coadministration of gilteritinib with midazolam (CYP3A4 [1])	AUC (CYP3A4 [2])	Cmax (CYP3A4 [2])	half-life [3]	increase in exposure when coadministered with itraconazole [3]	increase in exposure when coadministered with ketoconazole [3]	increase in exposure with a high-fat meal [3]
OCc1ncc2n1-c1ccc(Cl)cc1C(c1ccccc1F)=NC2 [1-hydroxymidazolam]	149.9%	123.5%	17.0 ng·h/mL	4.3 ng/mL	11.3 ng·h/mL	3.5 ng/mL	~50%	approximately 23%						
Cc1ncc2n1-c1ccc(Cl)cc1C(c1ccccc1F)=NC2 [midazolam, reference compound]	109.5%	111.6%					10%	10%	54.3 ng·h/mL	14.3 ng/mL				
CO[C@@H]1[C@H](N(C)C(=O)c2ccccc2)C[C@H]2O[C@]1(C)n1c3ccccc3c3c4c(c5c6ccccc6n2c5c31)C(=O)NC4 [midostaurin]											21 h	2.1 fold	10.4 fold	1.6 fold
